From PMC10812665, “Definition of the Neurotoxicity-Associated Metabolic Signature Triggered by Berberine and Other Respiratory Chain Inhibitors” (Antioxidants, 2023)

Biological target: T1, purified pig brain tubulin (Sus scrofa, UniProt P02550+P02554)
T1 construct: native alpha/beta-tubulin purified from pig brain
Assay: tubulin polymerization, absorbance […] nm
Assay type: biochemical

T1 sequence (P02554 whole entry): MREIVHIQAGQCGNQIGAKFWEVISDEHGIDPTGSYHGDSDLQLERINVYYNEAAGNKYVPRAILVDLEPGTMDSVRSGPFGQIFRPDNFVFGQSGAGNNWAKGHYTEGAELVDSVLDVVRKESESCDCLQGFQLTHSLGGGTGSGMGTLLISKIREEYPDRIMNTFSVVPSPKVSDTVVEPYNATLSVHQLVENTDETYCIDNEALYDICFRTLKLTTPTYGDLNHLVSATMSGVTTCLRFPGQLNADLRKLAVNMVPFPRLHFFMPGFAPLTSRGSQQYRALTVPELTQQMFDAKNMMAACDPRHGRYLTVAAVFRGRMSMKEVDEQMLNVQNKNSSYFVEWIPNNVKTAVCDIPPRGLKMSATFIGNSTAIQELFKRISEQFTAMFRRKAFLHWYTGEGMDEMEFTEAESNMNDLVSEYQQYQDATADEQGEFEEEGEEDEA
T1 sequence (P02550 whole entry): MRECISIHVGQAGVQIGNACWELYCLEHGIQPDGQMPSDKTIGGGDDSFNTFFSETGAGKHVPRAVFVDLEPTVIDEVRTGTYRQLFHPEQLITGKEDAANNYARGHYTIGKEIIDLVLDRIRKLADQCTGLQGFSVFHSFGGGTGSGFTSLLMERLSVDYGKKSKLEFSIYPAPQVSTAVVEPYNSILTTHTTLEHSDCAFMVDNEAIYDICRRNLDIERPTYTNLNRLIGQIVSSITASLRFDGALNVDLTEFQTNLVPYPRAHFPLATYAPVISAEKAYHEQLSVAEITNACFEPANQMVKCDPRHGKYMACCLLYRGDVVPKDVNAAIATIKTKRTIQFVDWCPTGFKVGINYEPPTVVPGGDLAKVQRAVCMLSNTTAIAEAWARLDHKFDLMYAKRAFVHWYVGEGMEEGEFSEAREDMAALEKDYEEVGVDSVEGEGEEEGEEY

C=C(C)[C@H]1Cc2c(ccc3c2O[C@@H]2COc4cc(OC)c(OC)cc4[C@@H]2C3=O)O1 [Rot, rotenone]
EC50: 640 nM
